Assays:
Format in all cases: in vivo
rice = assay: Test Example 4: effect on crop by soil treatment (symbol b); settings: for b: directly sowed rice plant, effect grade on crop: 320 g/ha; for Effect on crop grade, b: directly sowed rice plant: application herbicide amount 320 g/ha
Outline: (§1)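 Seeds were sown in spots on sterilized diluvial soil in a plastic box and covered with about 1.5 cm of soil. Plants were then grown in a greenhouse at 25° C. to 30° C.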

soybean = assay: Test Example 4: effect on crop by soil treatment (symbol d); settings: for d: soybean, effect grade on crop: 320 g/ha; for Effect on crop grade, d: soybean: application herbicide amount 320 g/ha
Outline: as §1

Avena fatua = assay: Test Example 4: herbicidal effect by soil treatment (symbol I); settings: for I: Avena fatua, herbicidal effect grade: 320 g/ha; for Herbicidal effect grade, I: Avena fatua: application herbicide amount 320 g/ha
Outline: (§2)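 Seeds were sown in sterilized diluvial soil, covered with about 1.5 cm of soil, and the soil surface was sprayed with a water-diluted emulsion of the compound at a predetermined rate. Plants grew in a greenhouse at 25° C. to 30° C.; effects were scored visually 3 weeks after application.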

Stellaria media = assay: Test Example 5: herbicidal effect by foliage application, plastic box (symbol P); settings: 320 g/ha, 3 weeks after application
Outline: (§3)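 Sowing in sterilized diluvial soil, 14 days' greenhouse growth at 25° C. to 30° C., then uniform small-sprayer foliar application of aqueous emulsion dilution; plants scored three weeks afterwards.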

wheat = assay: Test Example 4: effect on crop by soil treatment (symbol e); settings: for e: wheat, effect grade on crop: 320 g/ha; for Effect on crop grade, e: wheat: application herbicide amount 320 g/ha
Outline: as §1

[1] = test system: Echinochloa oryzacola Vasing.; assay: Test Example 2: herbicidal activity, application during weed generation in submerged conditions (symbol A); settings: Table 23; application herbicide amount 320 g/ha; grade 0-5 by criteria of Test Example 1
Outline: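 Paddy pot test, submerged (4 cm water), alluvial soil, mixed sowing; greenhouse 25–30° C. Emulsion formulation diluted to predetermined rate, applied onto floodwater at 1–2 leaf stage. Visual herbicidal rating at 3 wk post-treatment.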

transplanted rice plant = assay: Test Example 1: effect on crop, application before weed generation in submerged conditions (symbol a); settings: application herbicide amount 320 g/ha
Outline: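 Alluvial soil pots flooded to 4 cm water, sown with Echinochloa oryzacola, Scirpus juncoides and Monochoria vaginalis, then transplanted with 2.5 leaf stage rice seedlings; pre-emergence application. Greenhouse 25° C. to 30° C.; scored 0–5 by herbicidal ratio 3 weeks after application.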

Digitaria ciliaris = assay: Test Example 4: herbicidal effect by soil treatment (symbol F); settings: for F: Digitaria ciliaris, herbicidal effect grade: 320 g/ha; for Herbicidal effect grade, F: Digitaria ciliaris: application herbicide amount 320 g/ha
Outline: as §2

Cyperus difformis = assay: Test Example 3: herbicidal effect by foliage application, Wagner pot (symbol E); settings: application herbicide amount 320 g/ha; for E herbicidal effect grade: Table 24
Outline: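 Foliar spray of water-diluted emulsion formulation at a predetermined herbicide amount onto 14-day-old plants in flooded alluvial soil (water depth 0.1–0.5 cm), greenhouse 25–30 °C; rice sown alongside. Scored 3 wk post-application on set criteria.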

Galium spurium = assay: Test Example 5: herbicidal effect by foliage application, plastic box (symbol Q); settings: 320 g/ha, 3 weeks after application
Outline: as §3

corn = assay: Test Example 5: effect on crop by foliage application, plastic box (symbol c); settings: 320 g/ha, 3 weeks after application
Outline: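 Sterilized diluvial soil, plastic box (21 × 13 × 7 cm); spot sowing, ~1.5 cm soil cover; greenhouse 25–30° C.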

rapeseed = assay: Test Example 4: effect on crop by soil treatment (symbol g); settings: for g: rapeseed, effect grade on crop: 320 g/ha; for Effect on crop grade, g: rapeseed: application herbicide amount 320 g/ha
Outline: as §1

SMILES	b: directly sowed rice plant, effect grade on crop (rice)	d: soybean, effect grade on crop (soybean)	I: Avena fatua, herbicidal effect grade (Avena fatua)	P: Stellaria media, herbicidal effect (criteria 0-5) (Stellaria media)	e: wheat, effect grade on crop (wheat)	Herbicidal effect grade, A: Echinochloa oryzacola Vasing. [1]	Effect grade on crop, a: transplanted rice plant (transplanted rice plant)	F: Digitaria ciliaris, herbicidal effect grade (Digitaria ciliaris)	herbicidal effect on E, grade 0-5 (Cyperus difformis)	Q: Galium spurium, herbicidal effect (criteria 0-5) (Galium spurium)	c: corn, effect on crop (criteria 0-5) (corn)	g: rapeseed, effect grade on crop (rapeseed)	Effect on crop grade, b: directly sowed rice plant (rice)	Effect on crop grade, d: soybean (soybean)	Herbicidal effect grade, I: Avena fatua (Avena fatua)	P: Stellaria media, herbicidal effect grade (Stellaria media)	Effect on crop grade, e: wheat (wheat)	Herbicidal effect grade, F: Digitaria ciliaris (Digitaria ciliaris)	E herbicidal effect grade (Cyperus difformis)	Q: Galium spurium, herbicidal effect grade (Galium spurium)	also measured
CON=C(C)CC1CC(OC(=O)C2=C(Br)CCC2)=C(c2c(C)cc(C)cc2C)C1=O (stereo not drawn) [1-089]	5 (Herbicidal ratio of 90% or more (almost completely withered))	0 (Herbicidal ratio of 5% or lower (almost no effect))	2 (Herbicidal ratio of 20% or higher and lower than 40%)	0 (Herbicidal ratio of 5% or lower (almost no effect))	1 (Herbicidal ratio of 5% or higher and lower than 20%)	5 (Herbicidal ratio of 90% or more (almost completely withered))	5 (Herbicidal ratio of 90% or more (almost completely withered))	5 (Herbicidal ratio of 90% or more (almost completely withered))	5 (Herbicidal ratio of 90% or more (almost completely withered))	0 (Herbicidal ratio of 5% or lower (almost no effect))	5 (Herbicidal ratio of 90% or more (almost completely withered))	4 (Herbicidal ratio of 70% or higher and lower than 90%)	–	–	–	–	–	–	–	–	–
CCCC=CC(=O)OC1=C(c2c(C)cc(C)cc2C)C(=O)C(CC(C)=NOC)C1 (stereo not drawn) [1-090]	5 (Herbicidal ratio of 90% or more (almost completely withered))	0 (Herbicidal ratio of 5% or lower (almost no effect))	3 (Herbicidal ratio of 40% or higher and lower than 70%)	3 (Herbicidal ratio of 40% or higher and lower than 70%)	4 (Herbicidal ratio of 70% or higher and lower than 90%)	5 (Herbicidal ratio of 90% or more (almost completely withered))	5 (Herbicidal ratio of 90% or more (almost completely withered))	5 (Herbicidal ratio of 90% or more (almost completely withered))	5 (Herbicidal ratio of 90% or more (almost completely withered))	0 (Herbicidal ratio of 5% or lower (almost no effect))	5 (Herbicidal ratio of 90% or more (almost completely withered))	4 (Herbicidal ratio of 70% or higher and lower than 90%)	–	–	–	–	–	–	–	–	–
COCC(=O)OC1=C(c2c(C)cc(C)cc2C)C(=O)C(CC(C)=NOC)C1 (stereo not drawn) [1-093]	5 (Herbicidal ratio of 90% or more (almost completely withered))	0 (Herbicidal ratio of 5% or lower (almost no effect))	3 (Herbicidal ratio of 40% or higher and lower than 70%)	2 (Herbicidal ratio of 20% or higher and lower than 40%)	4 (Herbicidal ratio of 70% or higher and lower than 90%)	5 (Herbicidal ratio of 90% or more (almost completely withered))	5 (Herbicidal ratio of 90% or more (almost completely withered))	5 (Herbicidal ratio of 90% or more (almost completely withered))	5 (Herbicidal ratio of 90% or more (almost completely withered))	0 (Herbicidal ratio of 5% or lower (almost no effect))	5 (Herbicidal ratio of 90% or more (almost completely withered))	4 (Herbicidal ratio of 70% or higher and lower than 90%)	–	–	–	–	–	–	–	–	–
CON=C(C)CC1CC(OC(=O)COCc2ccccc2)=C(c2c(C)cc(C)cc2C)C1=O (stereo not drawn) [1-094]	5 (Herbicidal ratio of 90% or more (almost completely withered))	1 (Herbicidal ratio of 5% or higher and lower than 20%)	3 (Herbicidal ratio of 40% or higher and lower than 70%)	3 (Herbicidal ratio of 40% or higher and lower than 70%)	3 (Herbicidal ratio of 40% or higher and lower than 70%)	5 (Herbicidal ratio of 90% or more (almost completely withered))	5 (Herbicidal ratio of 90% or more (almost completely withered))	5 (Herbicidal ratio of 90% or more (almost completely withered))	4 (Herbicidal ratio of 70% or higher and lower than 90%)	0 (Herbicidal ratio of 5% or lower (almost no effect))	5 (Herbicidal ratio of 90% or more (almost completely withered))	4 (Herbicidal ratio of 70% or higher and lower than 90%)	–	–	–	–	–	–	–	–	–
CC#Cc1cc(C)c(C2=C(OC(=O)COc3ccccc3)CC(CC(=NOC)C(C)C)C2=O)c(C)c1 (stereo not drawn) [9-003]	–	–	–	–	–	5 (Herbicidal ratio of 90% or more (almost completely withered))	5 (Herbicidal ratio of 90% or more (almost completely withered))	–	–	–	–	–	5 (Herbicidal ratio of 90% or more (almost completely withered))	0 (Herbicidal ratio of 5% or lower (almost no effect))	3 (Herbicidal ratio of 40% or higher and lower than 70%)	3 (Herbicidal ratio of 40% or higher and lower than 70%)	4 (Herbicidal ratio of 70% or higher and lower than 90%)	5 (Herbicidal ratio of 90% or more (almost completely withered))	5 (Herbicidal ratio of 90% or more (almost completely withered))	0 (Herbicidal ratio of 5% or lower (almost no effect))	c: corn, effect on crop grade (corn): 5 (Herbicidal ratio of 90% or more (almost completely withered)); Effect on crop grade, g: rapeseed (rapeseed): 5 (Herbicidal ratio of 90% or more (almost completely withered))
CON=C(CC1CC(O)=C(c2c(C)cc(C#C[Si](C)(C)C)cc2C)C1=O)C(C)C (stereo not drawn) [9-005]	–	–	–	–	–	3 (Herbicidal ratio of 40% or higher and lower than 70%)	4 (Herbicidal ratio of 70% or higher and lower than 90%)	–	–	–	–	–	1 (Herbicidal ratio of 5% or higher and lower than 20%)	0 (Herbicidal ratio of 5% or lower (almost no effect))	0 (Herbicidal ratio of 5% or lower (almost no effect))	0 (Herbicidal ratio of 5% or lower (almost no effect))	0 (Herbicidal ratio of 5% or lower (almost no effect))	1 (Herbicidal ratio of 5% or higher and lower than 20%)	2 (Herbicidal ratio of 20% or higher and lower than 40%)	0 (Herbicidal ratio of 5% or lower (almost no effect))	c: corn, effect on crop grade (corn): 3 (Herbicidal ratio of 40% or higher and lower than 70%); Effect on crop grade, g: rapeseed (rapeseed): 0 (Herbicidal ratio of 5% or lower (almost no effect))

From patent US11000033B2, “Ketone or oxime compound, and herbicide” (NISSAN CHEMICAL CORPORATION, priority 2014, dated 2021)
